This is an account of results in US9556099B2 (INDENA S.P.A., priority 2013, dated 2017).

Data set [1] is described as follows: Plasma and brain levels in mice treated subacutely by intraperitoneal administration (HPLC/MS/MS). The note with it: 20 mg/kg i.p. twice a day for 4 days, mean±S.E. of 4 animals. On the procedure: In mice treated subacutely (twice a day for 4 days) by intraperitoneal administration at the dose of 20 mg/kg of the products according to the invention, their brain and plasma levels were determined by a combined HPLC/MS/MS analysis technique developed on the basis of a method already described by Keller J. H. et al. (Anal. Chem. 75, 6084, 2003).
Each value is the mean±S.E. of 4 animals. Time 0 corresponds to the 14th hour after the previous treatment

For data set [2], the system named is neuropathological damage induced by Aβ fibrils. The data set is described as follows: Neuropathological damage induced by Aβ fibrils in vivo (stereotactic injection into the dorsal hippocampus). The note with it: male rats, product co-injected with 80 μg Aβ fibrils into the dorsal hippocampus; for Density of reactive astrocytes: control 11 ± 4, fibrils only 39 ± 7; for Measurement of astrocyte soma: control 101 ± 18, fibrils only 310 ± 16.
Description: To evaluate the potential neuroprotective effect of the products according to the invention, male rats were treated stereotactically in the dorsal hippocampus with 80 μg of Aβ fibrils in the presence or absence of the products.

Setting [3] is: time 0 h (14th hour after the previous treatment).

Turning to `CC(C)=CCC[C@]1(C)[C@@H](CC=C(C)C)C[C@@]2(CC=C(C)C)C(=O)[C@]1(C(=O)C(C)C)C(=O)C(CC=C(C)C)=C2O` [Hyperforin, hyperforin], the Brain in data set [1] (setting [3]) turned out to be 15.2 ± 16.1 ng/g; in data set [1] (time 1 h), 21.1 ± 7.4 ng/g; in data set [1] (time 2 h), 23.2 ± 7.8 ng/g; in data set [1] (time 4 h), 32.3 ± 8.1 ng/g; in data set [1] (time 6 h), 35.6 ± 8.8 ng/g. For the same compound, the Brain/Plasma in data set [1] (setting [3]) was 1.89 ± 0.91%; in data set [1] (time 1 h), 1.24 ± 0.75%; in data set [1] (time 2 h), 1.32 ± 0.82%; in data set [1] (time 4 h), 1.91 ± 0.91%; in data set [1] (time 6 h) it was 2.12 ± 1.12%. The Plasma in data set [1] (setting [3]) was 624.5 ± 81.8 ng/mL; in data set [1] (time 1 h), 1547.2 ± 226.6 ng/mL; in data set [1] (time 2 h), 1421.3 ± 235.4 ng/mL; in data set [1] (time 4 h), 1275.4 ± 212.8 ng/mL; in data set [1] (time 6 h), 1192.6 ± 196.5 ng/mL. Besides, in data set [2], the “Density of reactive astrocytes” value is listed as 37 ± 6 GFAP^+ cell./4 × 10^3 μm^2. Besides, in data set [2], the “Measurement of astrocyte soma” value is recorded as 306 ± 14 arbitrary unit.

For “deisopropyl-dehydro tetrahydro adhyperforin”, in data set [2], the “Density of reactive astrocytes” value is reported as 24 ± 4 GFAP^+ cell./4 × 10^3 μm^2 and the “Measurement of astrocyte soma” value is 117 ± 9 arbitrary unit.
